Earlier results as cited in patent publication US6348490B1, “Dosage forms containing thioctic acid or solid salts of thioctic acid with improved release and bioavailability” (Asta Medica Aktiengesellschaft, priority 1994, dated 2002).

Assays:
[1] = factor versus racemate
[2] = factor versus racemate; remark: listed apart in the source

| Compound | anti-nociceptive (analgesic) action, factor stronger than that of the racemate [1] | anti-inflammatory action, factor stronger than that of the racemate [2] |
| --- | --- | --- |
| O=C(O)CCCC[C@H]1CCSS1 (single isomer, unassigned) [S-enantiomer, S-thioctic acid] | 6 |  |
| O=C(O)CCCC[C@@H]1CCSS1 [R-Thioctic acid, R-thioctic acid] |  | 10 |
